The source of these data is patent US3976762A (priority 1974, dated 1976).

Read-outs that look alike come from different tables or passages of the source.

For this data set the following is noted: mouse, in vivo; for Urine and Feces, percent of total injected radioactivity: iv.

As for Tc-99m-1,5-diaminopentylphosphonic acid, the “Localization / excretion of the complex (in words)” value is “high uptake of the complex by the kidney without rapid excretion”. The “Urine and Feces, percent of total injected radioactivity” value (shortened to “Urine and Feces, percent”) (0 h) is given as 0.0. Moreover, the “Urine and Feces, percent” value (0.5 h) came out at 47.3. Besides, where the note is “1 h”, the “Urine and Feces, percent” value came out at 55.0. Further, the “Urine and Feces, percent” value (2 h) came out at 61.3. Besides, where the note is “24 h”, the “Urine and Feces, percent” value stood at 83.2.
Tc-99m-1-aminobutylphosphonic acid: the “Localization / excretion of the complex (in words)” value is listed as “rapidly excreted via the kidney”. The “Urine and Feces, percent” value (0 h) was determined as 0.0. Besides, under “0.5 h”, the “Urine and Feces, percent” value was found to be 74.2. The “Urine and Feces, percent” value (1 h) came to 85.0. In addition, the “Urine and Feces, percent” value (2 h) was determined as 90.7. The “Urine and Feces, percent” value (4 h) worked out at 86.6.
